Literature values as cited in US20070026067A1, “Liquid formulations for controlled delivery of benzisoxazole derivatives” (priority 2005, published 2007).

What was measured:
[1] = in vivo

| half-life [1] | SMILES | solubility in water |
| --- | --- | --- |
| about one | Cc1nc2n(c(=O)c1CCN1CCC(c3noc4cc(F)ccc34)CC1)CCCC2O (stereo not drawn) [Paliperidone] | practically insoluble |
| – | Cc1nc2n(c(=O)c1CCN1CCC(c3noc4cc(F)ccc34)CC1)CCCC2 [Risperidone] | practically insoluble |
